Assay: excess molar enthalpy (molar enthalpy of mixing); xn = mol fraction of the nth substance listed
Conditions: 308.15 K, 12400 kPa, Fluid (supercritical or subcritical phases)

CCCCCC [hexane] + CO
Conditions	excess molar enthalpy [kcal/mol]
x2 = 0.032	0.0609
x2 = 0.062	0.081
x2 = 0.118	0.0966
x2 = 0.145	0.113
x2 = 0.17	0.117
x2 = 0.218	0.125
x2 = 0.249	0.129
x2 = 0.803	0.113
x2 = 0.828	0.107
x2 = 0.851	0.0978
x2 = 0.872	0.0877
x2 = 0.903	0.0727
x2 = 0.928	0.0593
x2 = 0.959	0.0347

CCCCCCCCO [octan-1-ol] + CCCCCC
Conditions	excess molar enthalpy [kcal/mol]
x1 = 0.033	0.0741
x1 = 0.05	0.086
x1 = 0.101	0.102
x1 = 0.153	0.111
x1 = 0.206	0.117
x1 = 0.3	0.122
x1 = 0.397	0.12
x1 = 0.447	0.115
x1 = 0.503	0.109
x1 = 0.602	0.0949
x1 = 0.653	0.0822
x1 = 0.696	0.0715
x1 = 0.749	0.059
x1 = 0.789	0.0483
x1 = 0.858	0.0313
x1 = 0.904	0.0163
x1 = 0.928	0.0148
x1 = 0.952	0.00526

Reference: the NIST ThermoML archive (doi:10.1016/j.fluid.2005.12.029)
